Measured values reported in US5272141A, “Contraceptive and menstrual cycle controlling drug having oncostatic therapeutic properties for treatment of mammary tumors and melanomas, and method therefor” (priority 1990, dated 1993).
Entries after “also recorded” stand apart in the source; their conditions may differ. Where two headings read alike, the source gives them in different places.

Tests used:
[1] = Acute toxicity in rats; conditions: rat, in vivo; for LD50: po, per os, read-out: DL50 (the source's name)
Method: (§1) In the specific case of melatonin, acute
1) Rats, intraperitoneally
2) Rats, per os DL50 = greater than
(§2) (observation period 14 days)
the symbol DL50 means the amount of material which kills 50% of the
(§3) With respect to the toxicity of 2-iodomelatonin and 2-bromomelatonin, the acute toxicity tests have been carried out:
1) in rats per os: DL50 greater than 200 mg/Kg

[2] = tested on: normal tissues; test: Binding in normal tissues
[3] = tested on: cellular membranes of melanoma; test: Binding to cellular membranes of melanoma
[4] = Acute toxicity in mice; conditions: mouse, in vivo, read-out: DL50 (the source's name)
Method: as §3
2) in mice per os and intraperitoneally: DL50 greater than 100 mg/Kg.

[5] = tested on: bladder carcinoma RT-112; test: Growth inhibition of bladder carcinoma RT-112; type: cell-based, human; conditions: in vitro
[6] = tested on: human neoplastic cell lines; test: Oncostatic effects in vitro; type: cell-based
[7] = tested on: stimulated dopamine release in the retina; conditions: cited from earlier work
[8] = Hematic, biochemical, electrophoretic, organ, bone marrow and histological toxicity tests; conditions: in vivo
Excerpt: The haematochemical, electrophoretic tests, and the tests for determining the status and weight of organs, bone marrow, and the hystological tests have not shown any particular toxicity and, based on these observations, which show the low toxicity of the individual compounds and associations, a favourable opinion has been released about the starting of the clinical experimentation.

[9] = tested on: cellular membranes of cellular lines infected with oncogenic viruses; test: Binding to cellular membranes of cellular lines infected with oncogenic viruses
[10] = tested on: neoplastic tissues; test: Binding in neoplastic tissues; conditions: compared with normal tissues
[11] = tested on: tumors; test: Long term treatment: arrest and partial regression of tumors in human; type: in vivo; conditions: in some cases
[12] = tested on: ovarian cell line JA; test: Growth inhibition of ovarian cell line JA; type: cell-based, human; conditions: in vitro
[13] = tested on: ovarian cell line SK-OV-3; test: Growth inhibition of ovarian cell line SK-OV-3; type: cell-based, human; conditions: in vitro
[14] = tested on: female patients; test: Clinical experimentation of associations used as contraceptives in eighty two female patients; type: in vivo, human; conditions: doses lower than those of melatonin
Method: With respect to the clinic experimentation, preliminary tests has been carried out on eighty two female patients, having an age between 18 and 46 years, with the following associations of the disclosed substances:
a) melatonin and norethisterone with doses per day of respectively 100-200 mg and 0.30-0.50 mg:
b) melatonin and 1-norgestrel with doses per day of respectively 100-200 mg and 0.08-0.16 mg;
c) 2-iodomelationin and norethisterone with doses per day of respectively 20-40 mg and 0.30-0.50 mg; mg;
d) 2-iodomelatonin and norgestrel with doses per day of respectively 20-40 mg and 0.35-0.80 mg;
e) 2-iodomelatonin and 1-norgestrel with doses per day of respectively 20-40 mg and 0.08-0.16 mg;
f) 2-bromomelatonin and norethisterone with doses per day of respectively 25-50 mg and 0.30-0.50 mg;
g) 2-bromomelatonin and norgestrel with doses per day of respectively 20-40 mg and 0.35-0.80.
h) 2-bomromelatonin and 1-norgestrel with doses pro die of respectively 20-40 mg and 0.08-0.16 mg.

[15] = tested on: B-16 melanoma; test: Lung metastasis and local tumor growth in mice implanted with B-16 melanoma; type: in vivo
Excerpt: (§4) The results obtained in our laboratories, however, have demonstered that 2-iodomelatonin and 2-bromomelatonin cause a reduction both in the number of the lung metastasis and of the local growth of tumors in mice inplanted with B-16 melanoma or MS-2 fibrosarcoma cells.

[16] = tested on: cellular membranes of mammary gland cancer; test: Binding to cellular membranes of mammary gland cancer
[17] = tested on: MS-2 fibrosarcoma cells; test: Lung metastasis and local tumor growth in mice implanted with MS-2 fibrosarcoma cells; type: in vivo
Excerpt: as §4

[18] = tested on: primary cultures from different human melanomas; test: Growth inhibition in primary cultures from different human melanomas; type: cell-based
Excerpt: (§5) In our studies and experiments we have obtained an inhibition greater than 75% of the growth in primary cultures of metastatic nodules of a human malignant melanoma upon treatment in "vitro" with 2-iodomelatonin and 2-bromomelatonin and in primary cultures from different human melanomas, a growth inhibition has been obtained in 6 of 11 patients studied.

[19] = tested on: mammary carcinoma MCF-7 cells; test: Growth inhibition of mammary carcinoma MCF-7 cells; type: cell-based, human; conditions: in vitro
[20] = tested on: tumors; test: Oncostatic effects in vivo
[21] = tested on: primary cultures of metastatic nodules of a human malignant melanoma; test: Growth inhibition in primary cultures of metastatic nodules of a human malignant melanoma; type: cell-based; conditions: in vitro
Excerpt: as §5

[22] = Biological activity in vivo and in vitro in respect to melatonin; conditions: both in vivo and in vitro
[23] = tested on: preventing undesired pregnancies; conditions: cited from earlier work
[24] = tested on: cell cultures, neoplasms and hyperplasias; conditions: laboratory animals; cited from earlier work
[25] = tested on: cell cultures, neoplasms and hyperplasias; conditions: humans; cited from earlier work
[26] = Sub-acute toxicity in rats; conditions: rat, in vivo, sc, subcutaneously, observation period 25 days, read-out: DL50
Excerpt: and the sub-acute toxicity in:
(observation period 25 days).
(§6) the symbol DL50 means the amount of material which kills 50% of the […]

[27] = in vivo; parameters: species or system rabbits; conditions: rabbit, iv
Excerpt: as §1
3) rabbits, intravenously
as §2, §6

[28] = tested on: estrogen receptor; test: Estrogen receptor number in MCF-7; type: cell-based, human
[29] = tested on: human contraception; conditions: comparatively high doses; cited from earlier work

Compound | LD50 [1] [mg/kg] | binding [2] | binding to cellular membranes [3] | LD50 ([4]; ip, intraperitoneally) [mg/kg] | LD50 ([4]; po, per os) [mg/kg] | inhibition of the growth [5] | oncostatic effects [6] | inhibition of stimulated dopamine release [7] | toxicity in hematic, biochemical, electrophoretic, organ, bone marrow and histological tests [8] | binding to cellular membranes [9] | binding affinity [10] | tumor arrest and regression [11] | inhibition of the growth [12] | inhibition of the growth [13] | dose reduction relative to melatonin (times lower) [14] | local growth of tumors [15] | number of the lung metastasis [15] | binding to cellular membranes [16] | local growth of tumors [17] | number of the lung metastasis [17] | also measured
COc1ccc2[nH]c(Br)c(CCNC(C)=O)c2c1 [2-bromomelatonin, N-acetyl-2-bromo-5-methoxytriptamine] | > 200 | high affinity, saturable and specific | bind to the cellular membranes | > 100 | > 100 | dose-dependant inhibition of the growth | Powerful oncostatic effects | potent inhibitors | have not shown any particularly toxicity | bind to the cellular membranes | much lower | arrest and partial regression of tumors | dose-dependant inhibition of the growth | dose-dependant inhibition of the growth | five to ten | reduction | reduction | bind to the cellular membranes | reduction | reduction | growth inhibition obtained (patients responding of patients studied) [18]: 6 of 11; inhibition of the growth [19]: dose-dependant inhibition of the growth; also recorded: inhibited the growth of the cellular lines MCF-7 in a dose dependant manner; oncostatic effects [20]: Powerful oncostatic effects; inhibition of the growth [21]: greater than 75%; activity relative to that of melatonin (times higher) [22]: seven to ten
C#C[C@]1(O)CC[C@H]2[C@@H]3CCC4=CC(=O)CC[C@@H]4[C@H]3CC[C@@]21C [Norethisterone, norethisterone] | – | – | – | – | – | – | – | – | – | – | – | – | – | – | – | – | – | – | – | – | undesired pregnancies ([23]; mini-pill, alone): about 2.35%
C#C[C@]1(O)CC[C@H]2[C@@H]3CCC4=CC(=O)CC[C@@H]4[C@H]3CC[C@@]21CC [1-norgestrel] | – | – | – | – | – | – | – | – | – | – | – | – | – | – | – | – | – | – | – | – | contraceptive results compared with norethisterone mini-pill ([23]; reduced doses (0.08-0.16 mg)): better results
COc1ccc2[nH]c([125I])c(CCNC(C)=O)c2c1 [2-(125I)-iodomelatonin] | – | – | – | – | – | – | – | – | – | – | – | – | – | – | – | – | – | – | – | – | binding [24]: specific and saturable binding; binding [25]: specific and saturable binding
COc1ccc2[nH]cc(CCNC(C)=O)c2c1 [melatonin, reference compound] | – | high affinity, saturable and specific | – | – | – | – | – | potent inhibitors of stimulated dopamine release in this organ, very much like melatonin | have not shown any particularly toxicity | – | much lower | arrest and partial regression of tumors | – | – | – | – | – | – | – | – | LD50 at 336 h ([1]; ip, intraperitoneally, observation period 14 days, read-out: DL50): 462 mg/kg; LD50 ([1]; observation period 14 days): > 800 mg/kg; LD50 at 600 h [26]: > 192 mg/kg; LD50 at 336 h [27]: 394 mg/kg; estrogen receptor number [28]: temporarily caused an increase of the estrogen receptor number; dose required to express contraceptive action [29]: 100 to 200 mg
COc1ccc2[nH]c(I)c(CCNC(C)=O)c2c1 [2-iodomelatonin, N-acetyl-2-iodo-5-methoxytriptamine] | > 200 | high affinity, saturable and specific | bind to the cellular membranes | > 100 | > 100 | dose-dependant inhibition of the growth | Powerful oncostatic effects | potent inhibitors | have not shown any particularly toxicity | bind to the cellular membranes | much lower | arrest and partial regression of tumors | dose-dependant inhibition of the growth | dose-dependant inhibition of the growth | five to ten | reduction | reduction | bind to the cellular membranes | reduction | reduction | growth inhibition obtained (patients responding of patients studied) [18]: 6 of 11; inhibition of the growth [19]: dose-dependant inhibition of the growth; also recorded: inhibited the growth of the cellular lines MCF-7 in a dose dependant manner; oncostatic effects [20]: Powerful oncostatic effects; inhibition of the growth [21]: greater than 75%; activity relative to that of melatonin (times higher) [22]: seven to ten
